Key:
[1] = tested on: purified bacterial strains isolated from human microbiota (Table 1: Bifidobacterium longum, Bacteroides vulgatus, Bacteroides fragilis, Clostridium …); format: cell-based, bacterial isolates, mainly from human (infant) feces; conditions: for growth (optical density, OD 600 nm) of individual bacterial isolates / final culture pH of individual bacterial isolates: 2 g/L 2′-FL, 3-FL, LDFT or FOS, 5 g/L HMOS, ZMB1 medium, for most of these bacteria; for growth (optical density, OD 600 nm) of individual bacterial isolates / final culture pH of individual bacterial isolates / decrease in culture pH compared with FOS: 48 h; for growth (optical density, OD 600 nm) of individual bacterial isolates: anaerobic, 37° C.; for decrease in culture pH compared with FOS: 2 g/L each, in most cases; for production of lactic acid: summary statement, for FOS: fecal slurrys and individual bacteria of the human microbiome
[2] = tested on: mixed microbiota of three infants (fecal slurry); assay: Anaerobic culture of infant fecal microbiota with oligosaccharide substrate; format: cell-based, human infant feces; conditions: 24 h
Method: First, the impact of 2′-FL and HMO were examined on fresh samples of mixed microbiota of three infants. A carbohydrate-free basal medium was prepared according to Hughes (Hughes S, et al. 2008 FEMS Microbiol Ecol, 64(3): 482-93) to study the growth of fecal bacteria during fermentation of human milk oligosaccharides (HMO) or 2′-FL. This basal medium contained per liter: 2 g peptone (Oxoid Ltd., Basingstoke, UK), 2 g yeast extract (Oxoid), 0.1 g NaCl, 0.04 g K2HPO4, 0.01 g MgSO4.7H2O, 0.01 g CaCl2.6H2O, 2 g NaHCO3, 0.005 g haemin (Sigma), 0.5 g L-cysteine HCl (Sigma), 0.5 g bile salts (Oxoid), 2 ml Tween 80, 10 μl vitamin K (Sigma), and 4 ml of 0.025% (w/v) resazurin solution. Anaerobic culture methods were those described in Bryant (Bryant, M 1972 Am J Clin Nutr, 25(12): 1324-8) using Hungate culture tubes, sealed with butyl rubber septa. Media were prepared and maintained anaerobically using O2-free CO2.
Fresh fecal samples were collected from three healthy babies, identified as A, B and C, who had not received antibiotics or pre/probiotics and had no history of gastrointestinal disorder. Fresh human infant feces were added to phosphate-buffered sterile anaerobic saline solution (1:10 feces to saline), mixed in a blender for 60 s, homogenized and filtered through a double layer of sterile cheesecloth. 2 g/L 2′FL and 5 g/L HMO were dissolved for 1 hour in medium before inoculation with 10% (v/v) fecal slurry prepared as above. Hungate tubes containing 2′-FL or HMO were inoculated with fecal material, serving as the treatment. Hungate tubes containing no substrate were also inoculated with feces, to serve as negative control. All tubes were incubated at 37° C. Culture supernatant samples were taken at 24 h. All samples were stored at −20° C. for further analysis. FIGS. 1, 2 and 3 show the results. Prebiotics are associated with an increase in the numbers of microbiota, especially bifidobacteria and lactobacilli, a decrease in gut pH, and an increase in lactic acid. […] These changes are all characteristic of prebiotics.

[3] = tested on: pathogenic strains of Campylobacter; conditions: background statement; cited from earlier work

Substance | growth (optical density, OD 600 nm) of individual bacterial isolates [1] | final culture pH of individual bacterial isolates [1] | decrease in culture pH compared with FOS [1] | production of lactic acid [1] | pH of infant microbiota cultures ([2]; 2′-FL 2 g/L, HMOS 5 g/L, three microbial communities, FIG. 2) | lactic acid produced in infant microbiota cultures ([2]; 2′-FL 2 g/L, HMOS 5 g/L, three microbial communities, compared to controls, FIG. 3) | total bacteria (bacterial growth) in infant microbiota cultures ([2]; 2′-FL at 2 g/L, HMOS at 5 g/L, fecal slurry of 3 infants (A, B, C), 37° C., anaerobic, vs no-substrate control, FIG. 1) | Campylobacter binding and infectivity [3]
2′-fucosyllactose [2′-FL] | growth was stimulated (to various degrees) | the pH of cultures decreased | at least as great | induce the production of lactic acid | pH is reduced | significantly higher amounts of lactic acid are produced compared to controls | induced an increase in total bacteria | inhibited
3-fucosyllactose [3-FL] | growth was stimulated (to various degrees) | the pH of cultures decreased | at least as great | induce the production of lactic acid | – | – | – | –
lactodifucotetraose [LDFT] | growth was stimulated (to various degrees) | the pH of cultures decreased | at least as great | induce the production of lactic acid | – | – | – | –

Source: patent publication US20190255083A1 (priority 2011, published 2019)
